1 sequence from patent US7241581B2, “Methods of identifying compounds that modulate IL-4 receptor-mediated IgE synthesis utilizing a c-MYC protein” (Rigel Pharmaceuticals, Inc., priority 2002, dated 2007) can be followed below.

For assay [1], the system named is endogenous germline α promoter. Kind of assay: TAQMAN assay of endogenous germline α promoter transcription in ST486 cells. The class given is cell-based. The settings on record: ST486 cells stimulated with TGF-β 40 ng/ml; average of 3 values. As for the experimental part: The assay was similar to that described in the immediately preceding section, except that ST486 cells (ATCC # CRL-1647) engineered to express the tetracycline-regulated transactivator were infected and the infected cells were stimulated with TGF-β (40 ng/ml; Peprotech). The primers and probe, which are specific for the transcription product driven by the ST486 endogenous α promoter, were as follows (the probe was labeled at the 5′-end with Fam and at the 3′-end with Tamra): […]
On the technique in general: Real-time PCR tracks product formation cycle by cycle.

Assay [2] relates to IL-4 induced germline ε transcription. Kind of assay: A5T4 reporter line screening of single cell clones (+Dox vs -Dox, IL-4 stimulated, GFP by FACS). The class given is cell-based, human. The settings on record: geometric mean GFP fluorescence +IL-4/+Dox to +IL-4/-Dox; IL-4 60 U/mL, Dox 10 ng/ml; library clone. The text has this:
Peptide BR10A1 wt was identified by screening a retroviral library of random peptide 20-mers for the ability to inhibit IL-4 induced germline ε transcription using the HBEGF2a/diphtheria dual reporter phenotypic screening system described in WO 01/31232. To construct the random library, A5T4 reporter cells (described in more detail below) were infected with an infectious retroviral library of random peptide 20-mers (prepared as described in WO 97/27213; see also WO 01/34806 at page 39, line 36 through page 40, line 19). The retroviral vector used includes a gene encoding blue fluorescent protein (BFP) fused upstream of the region encoding the random peptide via a linker region encoding an α-helical peptide linker (expression fusion product is referred to as “BFP-peptide”). Expression of the BFP-peptide product is controlled by a promoter sensitive to the tetracycline-regulated transactivator such that expression of the BFP-peptide is regulated by tetracycline (Tet) or doxycycline (Dox). See U.S. patent application Ser. No. 10/096,339, entitled “Methods and Compositions for Screening for Altered Cellular Phenotypes,” filed on Mar. 8, 2002. […]
A general note: Flow cytometry measures light scatter and fluorescence of single cells or particles in a stream.

The test system is the same in assay [3]. Kind of assay: Re-infection assay in naive A5T4 cells (BFP- vs BFP+ populations, GFP by FACS). The format is cell-based, human. The settings on record: geometric mean GFP fluorescence of BFP- population divided by BFP+ population, IL-4 60 U/mL, 3 days. As for the experimental part:
The ability of peptide BR10A1 wt to inhibit germline ε transcription was confirmed in naive cells. Briefly, Phoenix cells were transfected with a retroviral vector encoding a BFP-BR10A1 wt peptide fusion as described in WO 99/58663 and WO 97/27213. Naïve A5T4 cells were infected with the resultant virions and grown for 3 days. The infected cells were stimulated with IL-4 (60 U/mL) and, after 3 days, the cells were assessed by FACS for BFP and GFP. […] The BFP fluorescence data corresponding to the BFP^+ and BFP^− populations are provided in Panel A. The GFP fluorescence data corresponding to the BFP^+ and BFP^− populations are presented in Panel B. The reporter ratio for this purpose is determined as the geometric mean of the GFP fluorescence of the BFP^− population divided by the geometric mean of the GFP fluorescence of the BFP^+ population. The reporter ratio for the BR10A1 in this re-infection assay was 1.27.

Turning to “MQRRESCITRSVEEGWGLFYLGP (peptide encoded by random oligo-BR10A1wt) [wild-type peptide from random library, expressed in cells as BFP-peptide fusion]”, the “endogenous α inhibition ratio” value in assay [1] is 0.87. Further, the values for the Reporter Ratio in assay [2] and in assay [3] were 1.26 and 1.27, respectively.
